The source of these data is PMC10414684, “Novel integrated computational AMP discovery approaches highlight diversity in the helminth AMP repertoire” (PLOS Pathogens, 2023).

No end group written: not given here.

For assay [1] the following is noted: Computationally predicted from Kunitz inhibitor protein; ref [21]; cited from earlier work. The text has this:
Table 4 Reported AMPs from Schistosoma mansoni. | column: Activity reported

Assay [2] has as its system E. faecalis JH2-2. Kind of assay: microbe, parasite or virus in culture. It is filed as cell-based, Enterococcus faecalis. On the procedure: (§1) Prioritised helminth AMP-LPs were synthesised at >70% purity (Genosphere Biotechnologies). […] Peptides and control antibiotics [Ciprofloxacin (for gram-negative species; Sigma-Aldrich) and Vancomycin hydrochloride (for gram-positive species; Sigma-Aldrich)] were dissolved in sterile ultrapure water at a concentration of 5.12mg/ml. Minimum inhibitory concentrations (MICs) were determined for gram-positive and gram-negative bacterial isolates (see Table 3 for species) using microbroth dilution assays as described previously. Briefly, a single colony from each bacterial species was inoculated in cation-adjusted Mueller Hinton Broth (MHB) and grown for 18–24 hours at 37°C with shaking (225rpm) before being adjusted to a final bacterial density of 5x10^5 colony forming units (CFU) per ml. Peptides and Vancomycin hydrochloride were diluted using sterile MHB in sterile U-bottom 96 well polypropylene microplates (Greiner Bio One, UK) to give a concentration gradient ranging from 512–0.25μg/ml. Ciprofloxacin was further diluted in sterile MHB to give a concentration gradient ranging from 32–0.02μg/ml. Microplates were incubated at 37°C for 18–24 hours. Plates were assessed for visible growth and the MIC was defined as the lowest concentration of peptide or antibiotic that inhibited visible growth of a bacterial culture after an 18–24-hour incubation. MIC data were validated by positive and negative control antibiotic MIC data for each bacterial isolate.

The test system of assay [3] is gram-positive and gram-negative bacterial isolates. The format is cell-based. On the procedure: as §1, with “MIC data were validated by positive and negative control antibiotic MIC data for each bacterial isolate.” left out
The subject of assay [4] is E. coli K12. Kind of assay: Minimum inhibitory concentration, microbroth dilution. It is filed as cell-based, Escherichia coli. The following applies: cation-adjusted MHB, 5x10^5 CFU/ml, 37°C, 18–24 h, visible growth; for MIC E. coli K12 (-): peptides 512–0.25μg/ml, >70% purity (Cecropin P1 >95%), Ciprofloxacin 32–0.02μg/ml; for MIC: read-out: MIC E. coli K12 (-), μM in brackets. On the procedure: as §1
For orientation: In broth dilution the organism is exposed to a series of concentrations in liquid medium.

Assay [5] relates to A. baumannii DSM 30007. The assay is described as above. The format is cell-based, Acinetobacter baumannii. Particulars: cation-adjusted MHB, 5x10^5 CFU/ml, 37°C, 18–24 h, visible growth; for MIC A. baumannii DSM 30007 (-): peptides 512–0.25μg/ml, >70% purity (Cecropin P1 >95%), Ciprofloxacin 32–0.02μg/ml; for MIC: read-out: MIC A. baumannii DSM 30007 (-), μM in brackets. On the procedure:
as §1

For assay [6], the system named is P. aeruginosa PA01. The assay is described as above. It is filed as cell-based, Pseudomonas aeruginosa. Particulars: cation-adjusted MHB, 5x10^5 CFU/ml, 37°C, 18–24 h, visible growth; for MIC P. aeruginosa PA01 (-): peptides 512–0.25μg/ml, >70% purity (Cecropin P1 >95%), Ciprofloxacin 32–0.02μg/ml; for MIC: read-out: MIC P. aeruginosa PA01 (-), μM in brackets. On the procedure: as §1

Assay [7] has as its system S. aureus EMRSA-15. Kind of assay: microbe, parasite or virus in culture. It is filed as cell-based, Staphylococcus aureus. The following applies: Methicillin-resistant, microbroth dilution, cation-adjusted MHB, 5x10^5 CFU/ml, 37°C, 18–24 h, visible growth; for MIC S. aureus EMRSA-15 (+): peptides and Vancomycin hydrochloride 512–0.25μg/ml, peptides >70% purity (Cecropin P1 >95%). On the procedure:
as §1

Assay [8] relates to S. aureus RN4220. Kind of assay: microbe, parasite or virus in culture. The format is cell-based, Staphylococcus aureus. Particulars: Methicillin-Sensitive, microbroth dilution, cation-adjusted MHB, 5x10^5 CFU/ml, 37°C, 18–24 h, visible growth; for MIC S. aureus RN4220 (+): peptides and Vancomycin hydrochloride 512–0.25μg/ml, peptides >70% purity (Cecropin P1 >95%). Here is the method:
as §1

The mark [9] stands for this setting: microbroth dilution, cation-adjusted MHB, 5x10^5 CFU/ml, 37°C, 18–24 h, visible growth, peptides and Vancomycin hydrochloride 512–0.25μg/ml, peptides >70% purity (Cecropin P1 >95%).

On to GILDIKNKVSNLF [Schistocin-3], for which the Activity reported entry in assay [1] was “Antibacterial Antifungal”.

On to “GFGKWVKKKWGSVRKGASKLVKGVKKVFPKKGIPIIRYERRF [nAMP-LP-249]”, for which the “MIC E. faecalis JH2-2 (+)” value in assay [2] (JH2-2) turned out to be 16 µg/mL. Further, in assay [3], the “MIC against gram-negative species screened” value worked out at 8 µg/mL.

On to “GLGKSLKKIGRKIDKGFRKIRDRAGASVSFGSGQKPQGSIQISPV-NH2 [nAMP-LP-617]”, for which, in assay [4], the “MIC E. coli K12 (-)” value was determined as 4 µg/mL and the minimum inhibitory concentration (MIC) is on record as 1 µM. Besides, in assay [5], the “MIC A. baumannii DSM 30007 (-)” value was 8 µg/mL and the MIC came out at 2 µM. Also, in assay [6], the “MIC P. aeruginosa PA01 (-)” value came to 32 µg/mL and the minimum inhibitory concentration (MIC) is 7 µM. Besides, the “MIC S. aureus EMRSA-15 (+)” value in assay [7] was “/ (/ indicates that there was no activity at the highest concentration of peptide used (512μg/ml))”. The “MIC S. aureus RN4220 (+)” value in assay [8] is “/ (/ indicates that there was no activity at the highest concentration of peptide used (512μg/ml))”. Besides, the “MIC E. faecalis JH2-2 (+)” value in assay [2] (setting [9]) is recorded as “/ (/ indicates that there was no activity at the highest concentration of peptide used (512μg/ml))”. For the same substance, in assay [3], the “MIC against gram-negative species screened” value is 4 to 32 µg/mL.

As to GILDIKNKVSNLFKKIK [Schistocin-2], in assay [1], the Activity reported result is recorded as “Antifungal”.

For the substance GILDIKNKVSNLFKKIKGEK [Schistocin-1], in assay [1], the “Activity reported (all activity)” value is “All activity >100μM”.

As to “GKKDEGKEVVDDKAGDKKGMKKSFRRQQGWIWIYW [nAMP-LP-1231, nematode AMP-like peptide selected for synthesis and MIC screening]”, the “MIC E. coli K12 (-)” value in assay [4] is “/ (/ indicates that there was no activity at the highest concentration of peptide used (512μg/ml))”. Moreover, in assay [5], the “MIC A. baumannii DSM 30007 (-)” value is on record as “/ (/ indicates that there was no activity at the highest concentration of peptide used (512μg/ml))”. In addition, the “MIC P. aeruginosa PA01 (-)” value in assay [6] was “/ (/ indicates that there was no activity at the highest concentration of peptide used (512μg/ml))”. In addition, in assay [7], the “MIC S. aureus EMRSA-15 (+)” value is “/ (/ indicates that there was no activity at the highest concentration of peptide used (512μg/ml))”. In addition, the “MIC S. aureus RN4220 (+)” value in assay [8] is listed as “/ (/ indicates that there was no activity at the highest concentration of peptide used (512μg/ml))”. In addition, the “MIC E. faecalis JH2-2 (+)” value in assay [2] (setting [9]) is “/ (/ indicates that there was no activity at the highest concentration of peptide used (512μg/ml))”.

Turning to “FGYWSGGGHGGGHGIHGGGGGHHGWH [nAMP-LP-235, nematode AMP-like peptide selected for synthesis and MIC screening]”, the “MIC E. coli K12 (-)” value in assay [4] is reported as “/ (/ indicates that there was no activity at the highest concentration of peptide used (512μg/ml))”. For the same substance, in assay [5], the “MIC A. baumannii DSM 30007 (-)” value was “/ (/ indicates that there was no activity at the highest concentration of peptide used (512μg/ml))”. In assay [6], the “MIC P. aeruginosa PA01 (-)” value was “/ (/ indicates that there was no activity at the highest concentration of peptide used (512μg/ml))”. Further, the “MIC S. aureus EMRSA-15 (+)” value in assay [7] was “/ (/ indicates that there was no activity at the highest concentration of peptide used (512μg/ml))”. Further, the “MIC S. aureus RN4220 (+)” value in assay [8] was “/ (/ indicates that there was no activity at the highest concentration of peptide used (512μg/ml))”. Also, the “MIC E. faecalis JH2-2 (+)” value in assay [2] (setting [9]) is reported as “/ (/ indicates that there was no activity at the highest concentration of peptide used (512μg/ml))”.

In the case of “GAGRWRANRRANRRRFARRLRRNQRRAAQKRRAHARRHQRNLRRAARKIRRIQRR[nh2] (GAGRWRANRRANRRRFARRLRRNQRRAAQKRRAHARRHQRNLRRAARKIRRIQRR-NH2) [nAMP-LP-298, arginine-rich nematode AMP-like peptide conserved across four Clade 9/V gastrointestinal parasites]”, in assay [4], the “MIC E. coli K12 (-)” value was determined as 64 µg/mL and the MIC was 9 µM. In assay [5], the “MIC A. baumannii DSM 30007 (-)” value stood at 32 µg/mL and the MIC was determined as 5 µM. In addition, in assay [6], the “MIC P. aeruginosa PA01 (-)” value was 64 µg/mL and the MIC was 9 µM. Further, in assay [7], the “MIC S. aureus EMRSA-15 (+), μM in brackets” value was found to be 9 µM and the “MIC S. aureus EMRSA-15 (+)” value came to 64 µg/mL. Further, in assay [8], the “MIC S. aureus RN4220 (+), μM in brackets” value amounted to 5 µM and the “MIC S. aureus RN4220 (+)” value turned out to be 32 µg/mL. In addition, the “MIC E. faecalis JH2-2 (+), μM in brackets” value in assay [2] (microbroth dilution, cation-adjusted MHB, 5x10^5 CFU/ml, 37°C, 18–24 h, visible growth) was 9 µM. In assay [2] (setting [9]), the “MIC E. faecalis JH2-2 (+)” value is 64 µg/mL.

As usually defined, the MIC is the lowest concentration found to suppress growth.
